{
  "source": "patent US20210147866A1",
  "about": "“PLANTS HAVING INCREASED TOLERANCE TO HERBICIDES” (BASF SE, priority 2017, published 2021)",
  "key": {"[1]": {"system": "Arabidopsis thaliana MC24", "assay": "Greenhouse dose response, post-emergence spray of untransformed motherline", "assay_type": "in vivo", "conditions": "9 leaf stage, rates from 0.8 to 100 g/ha, 14 days after treatment (FIG. 2)"}, "[2]": {"system": "Transgenic MC24 plants expressing the Scenedesmus obliquus HPPD full length coding sequence (SEQ ID NO: 47)", "assay": "Greenhouse post-emergence herbicide tolerance test, transgenic lines expressing full length Scenedesmus obliquus HPPD (F363I)", "assay_type": "in vivo, Arabidopsis thaliana", "source_text": "(§1) Additionally, T1 and T2 transgenic Arabidopsis plants can be tested for improved tolerance to HPPD-inhibiting benzamide herbicides in a greenhouse studies. Herbicide injury scoring is done 2-3 weeks after treatment and is rated on a scale of 0 to 100%, 0% being no injury and 100% being complete death.\n(§2) The seedlings are then transfered to pots with a diameter of 10 cm and grown in soil to the nine leaf stage.\n(§3) Preselected transgenic Arabidopsis plants expressing heterologous Scenedesmus obliquus HPPD mutant enzymes as defined in Seq ID No. 48 and Seq ID No. 50 are tested for tolerance against HPPD-inhibiting 4-bromo-3-(dicyclopropylcarbamoylamino)-6-fluoro-2-methyl-N(1-methyltetrazol-5-yl) benzamide herbicide in greenhouse experiments.\n(§4) Transgenic lines are tested expressing heterologous Scenedesmus obliquus HPPD coding sequences under control of the constitutive parsley ubiquitin promoter and the nos terminator. One construct contains the full length Scenedesmus obliquus HPPD enzyme (Seq ID No. 47) while in a second construct the naturally occurring C-terminal insertion of 36 amino acids at position 442-477 is deleted (Seq ID No. 49). Both coding sequences carry the mutation F363I.\n(§5) Broadleaf plants are more sensitive to HPPD inhibitors when applied post-emergence as compared to a pre-emergence testing. Therefore, transgenic lines are tested in a post emergence setting at about the nine leaf stage.\n(§6) For the herbicide treatment of transgenic lines 4-bromo-3-(dicyclopropylcarbamoylamino)-6-fluoro-2-methyl-N-(1-methyltetrazol-5-yl) benzamide is applied at use rates of 25, 50 and 100 g/ha (see FIG. 3)\n(§7) Treated plants are assessed 14 days after treatment (DAT) in the post-emergence setting."}, "[3]": {"system": "Transgenic MC24 plants expressing the short Scenedesmus obliquus HPPD (SEQ ID NO:50)", "assay": "Greenhouse post-emergence herbicide tolerance test, transgenic lines expressing short Scenedesmus obliquus HPPD (F363I, amino acids 442-477 deleted)", "assay_type": "in vivo, Arabidopsis thaliana", "source_text": "as §1, §2, §3, §4, §5, §6, §7"}},
  "data": [
    {"compound": "Cc1c(NC(=O)N(C2CC2)C2CC2)c(Br)cc(F)c1C(=O)Nc1nnnn1C", "note": "[4-bromo-3-(dicyclopropylcarbamoylamino)-6-fluoro-2-methyl-N-(1-methyltetrazol-5-yl) benzamide]", "values": [
      {"measurement": "sensitivity of untransformed MC24 plants towards the herbicide (plant death)", "setting": "[1]", "value": "die even at the lowest rate"},
      {"measurement": "herbicide tolerance of full length sequence compared to HPPD not containing the C-terminal loop", "setting": "[2]; 25-100 g/ha, 14 days after treatment", "value": "slightly better herbicide tolerance"},
      {"measurement": "herbicide tolerance of transgenic lines", "setting": "[2]; full length S. obliquus HPPD F363I, 25-100 g/ha, post-emergence, 9 leaf stage, 14 DAT (FIG. 4)", "value": "show herbicide tolerance"},
      {"measurement": "injury of plants with S. obliquus HPPD gene carrying F363I (overall assessment)", "setting": "[2]; full length construct, shown rates 25, 50 and 100 g/ha, 14 days after treatment", "value": "very little to no injury"},
      {"measurement": "herbicide tolerance of transgenic lines", "setting": "[3]; short S. obliquus HPPD F363I, 25 to 100 g/ha, post-emergence, 9 leaf stage, 14 DAT (FIG. 3)", "value": "show herbicide tolerance"},
      {"measurement": "herbicidal injury of transgenic lines", "setting": "[3]; short S. obliquus HPPD F363I, 50 to 100 g/ha, post-emergence, 14 DAT (FIG. 3)", "value": "Little herbicidal injury"},
      {"measurement": "injury of plants with S. obliquus HPPD gene carrying F363I (overall assessment)", "setting": "[3]; short construct, shown rates 25, 50 and 100 g/ha, 14 days after treatment", "value": "very little to no injury"}
    ]}
  ]
}
